Laboratory results taken from patent US20040224935A1, “Topical antiandrogenic steroids” (Endorecherche, Inc., priority 2003, published 2004).
Where two headings read alike, the source gives them in different places.

Legend:
rat prostate = test: Systemic antiandrogenic activity in immature male rats (castrated, DHT implant), prostate weight; conditions: po, 168 h, 0.5 mg/animal per os once daily 7 days, % efficacy relative to inhibition by flutamide, read-out: RAT (in vivo) (systemic) Prostate Inh. % inh. (0.5 mg, per os)
Method: Column 5 represents the % of antiandrogenic efficacy in rat prostate, relatively to the percentage of inhibition of flutamide calculated by the formula:
(§1) % efficacy versus Flu=100×% inhib (compound)/% inhib (Flu).
(§2) Where the percentage of inhibition (% inhib) is calculated by the following formula:
% lnhib=100−[W (compound)−W (control)/W (DHT)−W (control)]×100.
W is the weight of the prostate.
(§3) C Systemic antiandrogenic activity (immature male rats)
(§4) 1. Animals Immature male rats (Crl:CD(SD)Br) 22 to 24-day old were obtained from Charles-River, Inc. (St-Constant, Quebec, Canada) and housed up to 5 per cage in plastic bins in a temperature (23±1° C.)—and light (12 h light/day, lights on at 7h15)—controlled environment. The rats were fed rodent chow and tap water ad libitum. The day following their arrival, the animals were orchidectornized (CX) under Isoflurane anesthesia via scrotal route and randomly assigned to groups of 5 animals. One silastic implant of dihydrotestosterone (DHT; length of implant: 1 cm) was inserted subcutaneously in the dorsal area of animals at the time of orchidectomy. One group of 5 animals was CX only as control (no DHT implant inserted).
(§5) 2. Treatments To evaluate the antiandrogenic activity, tested compounds were administered orally by gavage once daily at a dose of 0.5 mg/animal for 7 days (SD 1 to 7). Compounds were solubilized (when possible) in dimethylsulfoxide (DMS, 10% final concentration) and administered as suspension in 0.4% methylcellulose. Rats in CX control and CX+DHT control groups received the vehicle alone during the 7-day period. One group of animals received the antiandrogen Flutamide as reference. The animals were killed by cervical dislocation under isoflurane anesthesia on the 8th morning following castration. The ventral prostate and seminal vesicles were rapidly dissected and weighed.
(§6) 3. Calculations and Statistical Analysis The percentage of inhibition (% inhib) is calculated by the following formula:
(§7) % Inhib=100−[W (compound)−W (control)/W (DHT)−W (control)]×100.
(§8) This percentage is reported as % of efficacy, relatively to the percentage of inhibition of flutaride calculated by the formula: % efficacy versus Flu=100×% inhib (compound)/% inhib (Flu).
(§9) W is the weight of the prostate or the seminal vesicle.

[1] = system: Hamster's ear sebaceous glands; test: Topical antiandrogenic activity, histomorphometry of the ear sebaceous glands in the hamster; format: in vivo, Male Golden Syrian hamster; conditions: Mesocricetus auratus, 336 h, once daily, 14 days, sebaceous gland area, read-out: Antiandrogenic activity in Hamster's sebaceous glands Inh. Vs Cx (%); for inhibition in vivo at 0.001 mg: dose 1 μg applied topically on left ear of intact male hamster; for inhibition in vivo at 0.003 mg: dose 3 μg applied topically on left ear of intact male hamster; for inhibition in vivo at 0.01 mg: dose 10 μg applied topically on left ear of intact male hamster
Source text: Column 3 represents the dose of antiandrogenic compounds applied on the left ear of the intact male hamster.
Column 4 represents the relative inhibition in % of the area of the sebaceous gland of the left ear versus control hamster. Higher values approaching the effect of castration are preferable
The Antiandrogenic activity of antiandrogenic compounds has been measured using a Histomorphometry assay of the Ear Sebaceous Glands in the Hamster
1. Animals Male Golden Syrian, Hamster (SYR) of 110-120 g were obtained from Harlan Sprague Dawlay (Madison, USA) and housed up to 2 per cage in plastic cages in a temperature (22±3° C.) and light (12 h light/day, lights on at 7 h 15) in a controlled environment. The hamsters were fed with Certified Rodent Diet 5002 (pellet) and tap water ad libitum. The animals were acclimated for at least five days before the beginning of the study. Animals were randomly assigned to groups of eight hamsters. One group of hamsters was castrated under isoflurane-induced anesthesia on the day of dosing initiation (SD 1) and used as control group.
2. Treatments To evaluate the antiandrogenic activity, tested compounds were applied topically on the inner part of the left ear, once daily, for 14 days. Ten μL solution of acetone: ethanol: propylene Glycol (1:1:2; v:v:v) containing 0.1, 0.3 or 1.0 mg/mL of tested compound was carefully applied onto a region between the two cartilage ridges of the ventral surface of left pinna. For animals in the castrated and intact control groups ten-μL vehicle was applied onto the left ear. No solution will be applied on the right ear for any animals of the study.
3. Postmortem Observations and Measurements On Study Day 15, the hamsters were euthanized by cervical dislocation under isoflurane anesthesia. The left and right ears were collected attached together by the head skin, flat fixed on a paper and were immersed in 10% neutral buffered formalin. From the flat fixed ear and using paper puncture that makes a hole of 6 mm, the region where solution was applied was collected from each ear. Using a scalpel blade, the collected 6 mm round ear specimen was cut in the middle between the two cartilage ridges. The two equal parts of the ear round specimen were embedded in paraffin. After processing the tissue, the two parts were vertically embedded parallel to each other in a way that the flat 6 mm area was facing out. From each paraffin block, one section (5 μm thick) was cut and collected on a glass slide. Thus, each slide contained two elongated sections of 6 mm length. Slides were stained with hematoxylin and eosin.
4. Analysis of Sebaceous Gland Area Using the video camera and objective lens number X5 of the light microscope, the resulting field that appears on the screen has a length of 0.953 mm. From the glass slide, when we have examined the first 6 mm long section from the left to the right, the first and second fields were ignored and the third and fourth fields were captured for analysis by the image analyzer. Each field has the length of 0.953 mm. With the help of the screen mouse, the sebaceous glands within the whole field length (0.953mm) were marked. Also, an area with the length of the whole field and the height between stratum granulosum and the upper edge of the cartilage was drawn.
The image analyzer calculated the total area of the sebaceous glands (μm^2) in each examined field. We also obtained the area, which has the length of 0.953 mm and the height between stratum granulosum and the cartilage. In addition, the percentage of the area occupied by the glands was obtained. Thus, for each ear, two sections were cut and two fields from each section were analyzed. The total of the four readings was averaged and the mean standard of error calculated by the image analyzer. The results were expressed in μm^2 as the total surface of glands per field and also as percentage of the area occupied by the glands.

[2] = system: Shionogi mouse mammary carcinoma cells; test: In vitro androgenic/antiandrogenic activity, DHT-stimulated Shionogi cell number; format: cell-based; conditions: for Shionogis (In Vitro) VS OH-FLU (ratio of Ki of hydroxyflutamide versus tested compound): OH-Flu = 1, DHT-stimulated cell number, higher values preferable
rat seminal vesicle = test: Systemic antiandrogenic activity in immature male rats (castrated, DHT implant), seminal vesicle weight; conditions: po, 168 h, 0.5 mg/animal per os once daily 7 days, % efficacy relative to inhibition by flutamide, read-out: RAT (in vivo) (systemic) SV Inh % inh. (0.5 mg, per os)
Method: Column 6 represents the % of antiandrogenic efficacy on the rat seminal vesicle, relative to the percentage of inhibition by flutamide calculated by the formula:
as §1, §2, §7
W is the weight of the seminal vesicle.
as §3, §4, §5, §6, §8, §9

[3] = Mus musculus, read-out: Shionogis (In Vitro) IC50(nM), inhibition of DHT-stimulated cell number, 10-12 days

Row | Structure (SMILES) | inhibition in vivo at 0.5 mg (rat prostate) [%] | inhibition in vivo at 0.001 mg [1] [%] | inhibition in vivo at 0.003 mg [1] [%] | inhibition in vivo at 0.01 mg [1] [%] | IC50 ([2]; Mus musculus, inhibition of DHT-stimulated cell number, 10-12 days, read-out: Shionogis (In Vitro) IC50) [nM] | IC50 ([2]; inhibition of DHT-stimulated cell number, 10-12 days, read-out: Shionogis (In Vitro) IC50) [nM] | inhibition in vivo at 0.5 mg (rat seminal vesicle) [%] | IC50 [2, 3] [nM] | Shionogis (In Vitro) VS OH-FLU (ratio of Ki of hydroxyflutamide versus tested compound) [2]
1 | C[C@@H]1CCC2C3CCc4c(C#N)cccc4C3CC[C@]2(C)[C@H]1O (stereo partly shown) [EM-3803] | 0 | 33.3 | 51.8 | 37 | 11 | 8.6 | 30 |  | 
2 | CC[C@@H]1CC2C3CCc4c(C#N)cccc4C3CC[C@]2(C)[C@H]1O (stereo partly shown) [EM-3852] | 0 |  | 66.6 | 70.4 |  |  | 0 | 16.1 | 8.7
3 | CC#Cc1ccc2c(c1C#N)CCC1C2CC[C@]2(C)C(=O)CCC12 (stereo partly shown) [EM-4142] | 0 | 18.5 | 18.5 | 37 |  |  | 22 | 29 | 3.7
4 | CC(C)[C@H]1CC2C3CCc4c(C#N)cccc4C3CC[C@]2(C)[C@H]1O (stereo partly shown) [EM-4157] | 0 | 18.5 | 29.6 | 40.7 |  |  | 55 | 33 | 5
5 | C#Cc1ccc2c(c1)CCC1C2CC[C@@]2(C)C1C[C@@H](C)[C@@H]2O (stereo partly shown) [EM-5035] | 11 | 3.7 | 11.1 | 51.9 |  |  | 4 | 66 | 1.6
